US20250324973A1, “Pest Control Composition and Control Method” (priority 2021, published 2025)

How the values were obtained:
Format in all cases: in vivo
[1] = test system: small brown planthopper, susceptible line or reduced susceptible line; assay: Test Example 20: spray on rice seedlings, mortality rate; settings: small brown planthopper 3rd-instar larvae on rice; 0.05-200 ppm; six days
Description: Natural pyrethrin or MX is formulated according to the method described in the Formulation Example 1. Similarly, flupyradifuron and flupyrimin are formulated according to the method described in the Formulation Example 1, respectively. Each of the above formulations is diluted with water containing 0.05% by volume of a spreading agent (product name: Shindain (registered trademark)) so that the concentration of active ingredient may be 0.05 ppm, 0.2 ppm, 0.8 ppm, 3.1 ppm, 12.5 ppm, 50 ppm or 200 ppm. Admire water dispersible granule (Active ingredient: imidacloprid, manufactured by Bayer CropScience K.K.), TREBON emulsifiable concentrate (Active ingredient: etofenprox, manufactured by Mitsui Chemicals Agro, Inc.), PRINCE flowable (Active ingredient: fipronil, manufactured by BASF Japan Ltd.), KIRAPPU flowable (Active ingredient: ethiprole, manufactured by Bayer CropScience K.K.), and APPLAUD flowable (Active ingredient: buprofezin, manufactured by NIHON NOHYAKU CO., LTD), which are commercial products, are diluted with water containing 0.05% by volume of a spreading agent (product name: Shindain (registered trademark)), respectively so that the concentration of active ingredient may be 0.05 ppm, 0.2 ppm, 0.8 ppm, 3.1 ppm, 12.5 ppm, 50 ppm or 200 ppm. The resulting dilution is sprayed to seedlings (at the 2.5-leaf stage) of rice (Oryza sativa) planted in a container at a rate of 10 ml/seedling. After that, 20 3rd-instar larvae of small brown planthopper of a susceptible line (a line that have been bred successively in Health & Crop Sciences Research Laboratory of Sumitomo Chemical Co., Ltd.) or small brown planthopper of a reduced susceptible line (a line that have been bred successively without selection after collecting in Nagasaki prefecture in 2016) are released thereto. Six days later, the number of surviving insects is observed, and a mortality rate of insect is calculated by the formula 2). On the other hand, rice is cultivated in the same way as in the treated plot, except that the dilution containing natural pyrethrin or MX is not sprayed (this is referred to as an untreated plot).

[2] = test system: diamondback moth, susceptible line or reduced susceptible line; assay: Test Example 19: spray on cabbage seedlings, mortality rate; settings: diamondback moth 3rd-instar larvae on cabbage; 0.05-200 ppm; five days
Description: Natural pyrethrin or MX is formulated according to the method described in the Formulation Example 1. Each of the above formulations is diluted with water containing 0.05% by volume of a spreading agent (product name: Shindain (registered trademark)) so that the concentration of active ingredient may be 0.05 ppm, 0.2 ppm, 0.8 ppm, 3.1 ppm, 12.5 ppm, 50 ppm or 200 ppm. Phoenix water dispersible granule (Active ingredient: flubendiamide, manufactured by NIHON NOHYAKU CO., LTD), PREVATHON flowable 5 (Active ingredient: chlorantraniliprole, manufactured by Nissan Chemical Corporation) and BENEVIA OD (Active ingredient: cyantraniliprole, manufactured by KUMIAI CHEMICAL INDUSTRY CO., LTD.), which are commercial products, are diluted with water containing 0.05% by volume of a spreading agent (product name: Shindain (registered trademark)), respectively so that the concentration of active ingredient may be 0.05 ppm, 0.2 ppm, 0.8 ppm, 3.1 ppm, 12.5 ppm, 50 ppm or 200 ppm. The resulting dilution is sprayed to seedlings (at the 3rd to 4th true leaf unfolding stage) of cabbage (Brassicae oleracea) planted in a container at a rate of 20 ml/seedling. After that, 10 3rd-instar larvae of diamondback moth of a susceptible line (a line that have been bred successively in Health & Crop Sciences Research Laboratory of Sumitomo Chemical Co., Ltd.) or diamondback moth of a reduced susceptible line (a line that have been bred successively without selection after collecting in Kumamoto prefecture in 2016) are released thereto. Five days later, the number of surviving insects is counted, and a mortality rate of insect is calculated by formula 3). On the other hand, cabbages are cultivated in the same way as in the treated plot, except that the dilution containing natural pyrethrin or MX is not sprayed (this is referred to as an untreated plot).

[3] = test system: white-backed planthopper, susceptible line or reduced susceptible line; assay: Test Example 21: spray on rice seedlings, mortality rate; settings: white-backed planthopper 3rd-instar larvae on rice; 0.05-200 ppm; six days
Description: Natural pyrethrin or MX is formulated according to the method described in the Formulation Example 1. Each of the above formulations is diluted with water containing 0.05% by volume of a spreading agent (product name: Shindain (registered trademark)) so that the concentration of active ingredient may be 0.05 ppm, 0.2 ppm, 0.8 ppm, 3.1 ppm, 12.5 ppm, 50 ppm or 200 ppm. PRINCE flowable (Active ingredient: fipronil, manufactured by BASF Japan Ltd.) and KIRAPPU flowable (Active ingredient: ethiprole, manufactured by Bayer CropScience K.K.), which are commercial products, are diluted with water containing 0.05% by volume of a spreading agent (product name: Shindain (registered trademark)), respectively so that the concentration of active ingredient may be 0.05 ppm, 0.2 ppm, 0.8 ppm, 3.1 ppm, 12.5 ppm, 50 ppm or 200 ppm. The resulting dilution is sprayed to seedlings (at the 2.5-leaf stage) of rice planted in a container at a rate of 10 ml/seedling. […] Six days later, the number of surviving insects is observed, and a mortality rate of insect is calculated by the formula 2). […]

[4] = test system: brown planthopper, susceptible line or reduced susceptible line; assay: Test Example 18: spray on rice seedlings, mortality rate; settings: brown planthopper 3rd-instar larvae on rice; 0.05-200 ppm; six days
Description: Natural pyrethrin or MX is formulated according to the method described in the Formulation Example 1. Similarly, flupyradifuron and flupyrimin are formulated according to the method described in the Formulation Example 4, respectively. Each of the above formulations is diluted with water containing 0.05% by volume of a spreading agent (product name: Shindain (registered trademark)) so that the concentration of active ingredient may be 0.05 ppm, 0.2 ppm, 0.8 ppm, 3.1 ppm, 12.5 ppm, 50 ppm or 200 ppm. Admire wettable powder (Active ingredient: imidacloprid, manufactured by Bayer CropScience K.K.), which is a commercial product, is diluted with water containing 0.05% by volume of a spreading agent (product name: Shindain (registered trademark)) so that the concentration of active ingredient may be 0.05 ppm, 0.2 ppm, 0.8 ppm, 3.1 ppm, 12.5 ppm, 50 ppm or 200 ppm. The resulting dilution is sprayed to seedlings (at the 2.5-leaf stage) of rice (Oryza sativa) planted in a container at a rate of 10 ml/seedling. After that, 20 3rd-instar larvae of brown planthopper of a susceptible line (a line that have been bred successively in Health & Crop Sciences Research Laboratory of Sumitomo Chemical Co., Ltd.) or brown planthopper of a reduced susceptible line (a line that have been bred successively without selection after collecting in Nagasaki prefecture in 2016) are released thereto. Six days later, the number of surviving insects is observed, and a mortality rate of insect is calculated by formula 2). On the other hand, rice is cultivated in the same way as in the treated plot, except that the dilution containing natural pyrethrin or MX is not sprayed (this is referred to as an untreated plot).

[5] = test system: cotton aphids, susceptible line or reduced susceptible line; assay: Test Example 17: spray on cucumber seedlings, control value; settings: 0.05-200 ppm, 10 ml/seedling, six days after spraying
From the text: Natural pyrethrin or MX is formulated according to the method described in the Formulation Example 1. Similarly, triflumezopyrim, flupyradifuron, or flupyrimin is formulated according to the method described in the Formulation Example 1, respectively. Each dilution is obtained by diluting each of the above formulations with water containing 0.05% by volume of a spreading agent (product name: Shindain (registered trademark)) so that the concentration of active ingredient may be 0.05 ppm, 0.2 ppm, 0.8 ppm, 3.1 ppm, 12.5 ppm, 50 ppm or 200 ppm. Each dilution is obtained by diluting Admire wettable powder (Active ingredient: imidacloprid, manufactured by Bayer CropScience K.K.) and Actara water dispersible granule (Active ingredient: thiamethoxam, manufactured by Syngenta Japan K.K.), which are commercial products, with water containing 0.05% by volume of a spreading agent (product name: Shindain (registered trademark)) so that the concentration of active ingredient may be 0.05 ppm, 0.2 ppm, 0.8 ppm, 3.1 ppm, 12.5 ppm, 50 ppm or 200 ppm. Cucumber seedlings (at the second true leaf unfolding stage) planted in a container are inoculated with 30 cotton aphids (including all growth stages) which are a susceptible line (a line that have been bred successively in Health & Crop Sciences Research Laboratory of Sumitomo Chemical Co., Ltd.) or a reduced susceptible line (a line that have been bred successively without selection after collecting in Miyazaki prefecture in 2016). One day later, the resulting dilution is sprayed to the seedlings at a rate of 10 ml/seedling. On the other hand, cucumbers are cultivated in the same way as in the treated plot, except that the dilution containing natural pyrethrin or MX is not sprayed (this is referred to as an untreated plot). Six days after spraying, the number of surviving insects is observed, and a control value is calculated by formula 1).
Letters in the formula have the following meanings • Cb: The number of insects tested in the untreated plot • Cai: The number of surviving insects at the time of observation in the untreated plot • Tb: The number of tested insects in the treated plot • Tai: The number of surviving insects at the time of observation in the treated plot

SMILES	effect (mortality rate) on the reduced susceptible line compared with the susceptible line [1]	effect (control value) on the reduced susceptible line compared with the susceptible line [5]	also measured
CC(C)N1C(=O)N(c2ccccc2)CS/C1=N\C(C)(C)C [buprofezin]	low compared with that on the sensitive line		
CNC(=O)c1cc(Cl)cc(C)c1NC(=O)c1cc(Br)nn1-c1ncccc1Cl [chlorantraniliprole]			effect (mortality rate) on the reduced susceptible line compared with the susceptible line [2]: low compared with that on the sensitive line
CNC(=O)c1cc(C#N)cc(C)c1NC(=O)c1cc(Br)nn1-c1ncccc1Cl [cyantraniliprole]			effect (mortality rate) on the reduced susceptible line compared with the susceptible line [2]: low compared with that on the sensitive line
CC[S+]([O-])c1c(C#N)nn(-c2c(Cl)cc(C(F)(F)F)cc2Cl)c1N (centres unmarked) [ethiprole]	low compared with that on the sensitive line		effect (mortality rate) on the reduced susceptible line compared with the susceptible line [3]: low compared with that on the sensitive line
CCOc1ccc(C(C)(C)COCc2cccc(Oc3ccccc3)c2)cc1 [etofenprox]	low compared with that on the sensitive line		
N#Cc1nn(-c2c(Cl)cc(C(F)(F)F)cc2Cl)c(N)c1[S+]([O-])C(F)(F)F (centres unmarked) [fipronil]	low compared with that on the sensitive line		effect (mortality rate) on the reduced susceptible line compared with the susceptible line [3]: low compared with that on the sensitive line
Cc1cc(C(F)(C(F)(F)F)C(F)(F)F)ccc1NC(=O)c1cccc(I)c1C(=O)NC(C)(C)CS(C)(=O)=O [flubendiamide]			effect (mortality rate) on the reduced susceptible line compared with the susceptible line [2]: low compared with that on the sensitive line
O=C1C=C(N(Cc2ccc(Cl)nc2)CC(F)F)CO1 [flupyradifuron]	low compared with that on the sensitive line	low compared with that on the sensitive line	effect (mortality rate) on the reduced susceptible line compared with the susceptible line [4]: low compared with that on the sensitive line
O=C(N=c1ccccn1Cc1ccc(Cl)nc1)C(F)(F)F [flupyrimin]	low compared with that on the sensitive line	low compared with that on the sensitive line	effect (mortality rate) on the reduced susceptible line compared with the susceptible line [4]: low compared with that on the sensitive line
O=[N+]([O-])NC1=NCCN1Cc1ccc(Cl)nc1 [imidacloprid]	low compared with that on the sensitive line	low compared with that on the sensitive line	effect (mortality rate) on the reduced susceptible line compared with the susceptible line [4]: low compared with that on the sensitive line
CN1COCN(Cc2cnc(Cl)s2)/C1=N\[N+](=O)[O-] [thiamethoxam]		low compared with that on the sensitive line	
O=c1c(-c2cccc(C(F)(F)F)c2)c([O-])[n+](Cc2cncnc2)c2ccccn12 [triflumezopyrim]		low compared with that on the sensitive line	
